ChEMBL document CHEMBL5506050, “Discovery of Oral AMP-Activated Protein Kinase Activators for Treating Hyperlipidemia” (J Med Chem, 2024)
The source made the active and inactive calls. The calls are words filed in the database; no cut-off is given here.

Tests used:
[1] = tested on: Mus musculus; experiment: Downregulation of Hspa5 mRNA level in liver of high-fat diet-fed C57BL/6 mouse model at 200 mg/kg, po for 4 weeks by GO analysis; type: functional, organism-based
[2] = tested on: Mus musculus; experiment: Lipid lowering effect on high-fat diet-fed Kunming mouse assessed as serum total cholesterol level at 50 mg/kg, po qd via gavage for 7 days consecutively (reference value: 159.3 +/- 11.5 mg/dl); type: functional; conditions: time 7 day
[3] = tested on: Syrian golden hamster; experiment: Lipid lowering effect on high-fat diet-fed golden hamster harboring LDLR-/- assessed as decrease in serum TC level at 200 mg/kg, po qd administered via gavage measured after 8 weeks relative to control; type: functional, Mesocricetus auratus; design: scale not given: the % may be the effect or the level left
[4] = tested on: Mus musculus; experiment: Effect on Dhcr7 mRNA level in liver of diet-induced obese C57BL/6 mouse model harboring AMPKalpha LS-/- at 200 mg/kg, po for 4 weeks by GO analysis; type: functional, organism-based
[5] = tested on: Syrian golden hamster; experiment: Lipid lowering effect on high-fat diet-fed golden hamster assessed as decrease in AST level in liver at 50 to 200 mg/kg, po qd administered via gavage measured after 4 weeks; type: functional, organism-based; conditions: Mesocricetus auratus, dose 50-200 mg/kg
[6] = tested on: Mus musculus; experiment: Downregulation of Ccl2 mRNA level in liver of high-fat diet-fed C57BL/6 mouse model at 200 mg/kg, po for 4 weeks by GO analysis; type: functional, organism-based
[7] = tested on: Syrian golden hamster; experiment: Effect on body weight gain in high-fat diet-fed golden hamster at 50 to 200 mg/kg, po qd administered via gavage measured after 4 weeks; type: functional, organism-based; conditions: Mesocricetus auratus, dose 50-200 mg/kg
[8] = tested on: Syrian golden hamster; experiment: Lipid lowering effect on high-fat diet-fed golden hamster assessed as decrease in ALT level in liver at 50 to 200 mg/kg, po qd administered via gavage measured after 4 weeks; type: functional, organism-based; conditions: Mesocricetus auratus, dose 50-200 mg/kg
[9] = tested on: Mus musculus; experiment: Effect on Ccl2 mRNA level in liver of diet-induced obese C57BL/6 mouse model harboring AMPKalpha LS-/- at 200 mg/kg, po for 4 weeks by GO analysis; type: functional, organism-based
[10] = tested on: Mus musculus; experiment: Effect on Ptafr mRNA level in liver of diet-induced obese C57BL/6 mouse model harboring AMPKalpha LS-/- at 200 mg/kg, po for 4 weeks by GO analysis; type: functional, organism-based
[11] = tested on: Mus musculus; experiment: Downregulation of Pcsk9 mRNA level in liver of high-fat diet-fed C57BL/6 mouse model at 200 mg/kg, po for 4 weeks by GO analysis; type: functional, organism-based
[12] = biological target: AMP-activated protein kinase, AMPK; experiment: Binding affinity to truncated AMPK (unknown origin) assessed as dissociation constant by CD analysis; type: protein-complex assay, Homo sapiens
[13] = tested on: Syrian golden hamster; experiment: Lipid lowering effect on high-fat diet-fed golden hamster assessed as decrease in serum LDL-C level at 50 mg/kg, po qd administered via gavage measured after 4 weeks relative to control; type: functional, Mesocricetus auratus; design: scale not given: the % may be the effect or the level left
[14] = biological target: AMP-activated protein kinase, AMPK; experiment: Binding affinity to recombinant AMPK (unknown origin)-immobilized in CM5 sensor chip assessed as dissociation constant by SPR analysis; type: protein-complex assay, Homo sapiens
[15] = tested on: Mus musculus; experiment: Downregulation of Dhcr7 mRNA level in liver of high-fat diet-fed C57BL/6 mouse model at 200 mg/kg, po for 4 weeks by GO analysis; type: functional, organism-based
[16] = tested on: Rhesus monkey; experiment: Lipid lowering effect in Rhesus monkey assessed as decrease in serum LDL-C level at 35 mg/kg, NG qd measured after 21 days relative to control; type: functional, Macaca mulatta; design: scale not given: the % may be the effect or the level left; conditions: time 21 day
[17] = tested on: Syrian golden hamster; experiment: Lipid lowering effect on high-fat diet-fed golden hamster assessed as decrease in serum LDL-C level at 6 mg/kg, po qd administered via gavage measured after 4 weeks relative to control; type: functional, Mesocricetus auratus; design: scale not given: the % may be the effect or the level left
[18] = tested on: Syrian golden hamster; experiment: Lipid lowering effect on high-fat diet-fed golden hamster assessed as decrease in serum TG level at 6 mg/kg, po qd administered via gavage measured after 4 weeks relative to control; type: functional, Mesocricetus auratus; design: scale not given: the % may be the effect or the level left
[19] = Stability in human plasma assessed as compound remaining at 1 to 5 uM measured after 30 mins by LC-MS/MS analysis; type: ADME, cell-free; conditions: dose 1-5 µM, read-out: Stability
[20] = biological target: AMP-activated protein kinase (AMPK) alpha-1/beta-1/gamma-1 (Homo sapiens) (UniProt P54619+Q9Y478+Q13131); experiment: Activation of AMPK alpha1/AMPKbeta1/AMPKgamma1 (unknown origin) using SAMS peptide as substrate assessed as relative enzyme activity at 10 uM incubated for 20 mins in presence of [gamma-32P]ATP by scintillation counter analysis; type: protein-complex assay; conditions: filed as activator
Sequence of AMP-activated protein kinase (AMPK) alpha-1/beta-1/gamma-1 (Homo sapiens) (P54619 whole entry): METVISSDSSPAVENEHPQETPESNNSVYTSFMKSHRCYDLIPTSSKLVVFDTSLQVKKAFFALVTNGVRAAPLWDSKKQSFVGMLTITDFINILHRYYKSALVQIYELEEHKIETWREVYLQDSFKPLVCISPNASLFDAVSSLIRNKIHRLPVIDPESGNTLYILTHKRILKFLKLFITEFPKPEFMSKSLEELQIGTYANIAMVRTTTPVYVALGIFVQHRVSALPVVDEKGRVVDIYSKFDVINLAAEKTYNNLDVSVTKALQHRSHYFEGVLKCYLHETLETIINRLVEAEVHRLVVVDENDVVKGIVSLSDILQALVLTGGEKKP
Sequence of AMP-activated protein kinase (AMPK) alpha-1/beta-1/gamma-1 (Homo sapiens) (Q13131 whole entry partner): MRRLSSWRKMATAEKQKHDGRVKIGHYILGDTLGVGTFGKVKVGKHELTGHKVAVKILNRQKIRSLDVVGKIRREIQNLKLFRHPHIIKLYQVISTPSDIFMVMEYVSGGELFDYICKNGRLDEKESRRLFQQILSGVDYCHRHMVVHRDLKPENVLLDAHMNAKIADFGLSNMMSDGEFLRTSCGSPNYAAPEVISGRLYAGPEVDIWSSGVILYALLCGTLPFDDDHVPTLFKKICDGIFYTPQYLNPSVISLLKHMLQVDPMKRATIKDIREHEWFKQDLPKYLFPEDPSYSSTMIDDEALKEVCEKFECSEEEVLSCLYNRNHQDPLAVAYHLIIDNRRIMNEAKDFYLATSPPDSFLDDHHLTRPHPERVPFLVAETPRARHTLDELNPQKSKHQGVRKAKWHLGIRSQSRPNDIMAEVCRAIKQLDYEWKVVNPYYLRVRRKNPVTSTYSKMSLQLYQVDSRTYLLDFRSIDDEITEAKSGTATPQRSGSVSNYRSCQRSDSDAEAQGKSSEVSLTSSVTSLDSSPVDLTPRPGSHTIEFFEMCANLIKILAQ
Sequence of AMP-activated protein kinase (AMPK) alpha-1/beta-1/gamma-1 (Homo sapiens) (Q9Y478 2-270 partner limits assumed): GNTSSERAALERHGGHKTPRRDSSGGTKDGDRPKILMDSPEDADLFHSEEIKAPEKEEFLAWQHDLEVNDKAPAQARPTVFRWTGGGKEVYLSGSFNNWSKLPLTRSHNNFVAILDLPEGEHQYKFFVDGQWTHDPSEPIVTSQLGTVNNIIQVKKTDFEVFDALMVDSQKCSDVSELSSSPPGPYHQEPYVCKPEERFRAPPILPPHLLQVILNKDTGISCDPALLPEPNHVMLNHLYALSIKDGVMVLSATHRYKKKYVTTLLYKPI

[21] = tested on: Mus musculus; experiment: Upregulation of Gadd45a mRNA level in liver of high-fat diet-fed C57BL/6 mouse model at 200 mg/kg, po for 4 weeks by GO analysis; type: functional, organism-based
[22] = Oral bioavailability in male Rhesus monkey at 70 mg/kg measured for 36 hrs by LC-tandem MS analysis; type: ADME, organism-based, Macaca mulatta; conditions: in vivo
[23] = tested on: Syrian golden hamster; experiment: Effect on adipose tissue weight in high-fat diet-fed golden hamster at 50 to 200 mg/kg, po qd administered via gavage measured after 4 weeks; type: functional, organism-based; conditions: Mesocricetus auratus, dose 50-200 mg/kg
[24] = biological target: AMP-activated protein kinase, AMPK (Homo sapiens) (UniProt P54646+O43741+P54619+Q9UGJ0+Q9Y478+Q13131+Q9UGI9); experiment: Activation of AMPK in human HepG2 cells assessed as decrease in intracellular lipid content at 10 uM incubated for 48 hrs by Oil Red O staining based analysis relative to control; type: cell-based; design: scale not given: the % may be the effect or the level left
[25] = tested on: Mus musculus; experiment: Upregulation of Gadd45b mRNA level in liver of high-fat diet-fed C57BL/6 mouse model at 200 mg/kg, po for 4 weeks by GO analysis; type: functional, organism-based
[26] = Apparent permeability across apical to basal side in human Caco-2 cells at 2 uM incubated for 2 hrs by LC-MS/MS analysis; type: ADME, cell-based
[27] = organism: Homo sapiens; experiment: Downregulation of serum TC level in human at 2000 mg bid for 7 days; type: functional; conditions: time 7.0 day
[28] = tested on: Syrian golden hamster; experiment: Effect on food uptake in high-fat diet-fed golden hamster at 50 to 200 mg/kg, po qd administered via gavage measured after 4 weeks; type: functional, organism-based; conditions: Mesocricetus auratus, dose 50-200 mg/kg
[29] = AUC (0 to t) in female Rhesus monkey at 70 mg/kg, po or 7 mg/kg, iv measured for 36 hrs by LC-tandem MS analysis; type: ADME, organism-based, Macaca mulatta; conditions: in vivo
[30] = tested on: Mus musculus; experiment: Downregulation of Sdf2l1 mRNA level in liver of high-fat diet-fed C57BL/6 mouse model at 200 mg/kg, po for 4 weeks by GO analysis; type: functional, organism-based
[31] = Stability in human Caco-2 cells assessed as compound remaining at 10 ug/ml measured after 3 hrs by LC-MS/MS analysis; type: ADME, cell-based; conditions: at 10 µg/mL, read-out: Stability
[32] = tested on: Mus musculus; experiment: Downregulation of Syvn1 mRNA level in liver of high-fat diet-fed C57BL/6 mouse model at 200 mg/kg, po for 4 weeks by GO analysis; type: functional, organism-based
[33] = tested on: Rhesus monkey; experiment: Lipid lowering effect in Rhesus monkey assessed as LDL-C level at 35 mg/kg, NG qd treated for 35 days followed by drug washout for 14 days; type: functional, Macaca mulatta; conditions: time 35 day
[34] = organism: Homo sapiens; experiment: Downregulation of serum LDL-C level in human at 2000 mg bid for 7 days; type: functional; conditions: time 7.0 day
[35] = tested on: Mus musculus; experiment: Effect on Ctgf mRNA level in liver of diet-induced obese C57BL/6 mouse model harboring AMPKalpha LS-/- at 200 mg/kg, po for 4 weeks by GO analysis; type: functional, organism-based
[36] = tested on: Mus musculus; experiment: Downregulation of Ccr2 mRNA level in liver of high-fat diet-fed C57BL/6 mouse model at 200 mg/kg, po for 4 weeks by GO analysis; type: functional, organism-based

SMILES: CC(=O)OC[C@H]1O[C@@H](n2cnc3c(Nc4cccc(O)c4)ncnc32)[C@H](OC(C)=O)[C@@H]1OC(C)=O
- Activity [1]: Active
- Activity [2]: 151.7 mg/dL
- Activity [3]: 19%
- Activity [4]: inactive
- Activity [5]: Active
- Activity [6]: Active
- Activity [7]: inactive
- Activity [8]: Active
- Activity [9]: inactive
- Activity [10]: inactive
- Activity [11]: Active
- Kd [12]: 0.21 µM
- Activity [13]: 10.5%
- Kd [14]: 17.9 µM
- Activity [15]: Active
- Activity [16]: 23.69%
- Activity [17]: 27.5%
- Activity [18]: 52.8%
- remaining at 0.5 h, up to 5 µM [19]: ~70%
- Activity [20]: 2.31
- Activity [21]: Active
- bioavailability [22]: 3.04%
- Activity [23]: inactive
- Activity [24]: 64%
- Activity [25]: Active
- Papp A→B at 2 h, 2 µM [26]: 8.6 ×10⁻⁶ cm/s
- Activity [27]: Active
- Activity [28]: inactive
- AUC(0-t) at 36 h [29]: 102 ng·h/mL
- Activity [30]: Active
- remaining at 3 h, 10 ug/ml [31]: 52%
- Activity [32]: Active
- Activity [33]: 1.25 mmol/L
- Activity [34]: Active
- Activity [35]: inactive
- Activity [36]: Active
